The target of assay [1] is T1, Axl (Homo sapiens, UniProt P30530).
T1 construct: purchased Life Technologies
T1 sequence (P30530 26-894): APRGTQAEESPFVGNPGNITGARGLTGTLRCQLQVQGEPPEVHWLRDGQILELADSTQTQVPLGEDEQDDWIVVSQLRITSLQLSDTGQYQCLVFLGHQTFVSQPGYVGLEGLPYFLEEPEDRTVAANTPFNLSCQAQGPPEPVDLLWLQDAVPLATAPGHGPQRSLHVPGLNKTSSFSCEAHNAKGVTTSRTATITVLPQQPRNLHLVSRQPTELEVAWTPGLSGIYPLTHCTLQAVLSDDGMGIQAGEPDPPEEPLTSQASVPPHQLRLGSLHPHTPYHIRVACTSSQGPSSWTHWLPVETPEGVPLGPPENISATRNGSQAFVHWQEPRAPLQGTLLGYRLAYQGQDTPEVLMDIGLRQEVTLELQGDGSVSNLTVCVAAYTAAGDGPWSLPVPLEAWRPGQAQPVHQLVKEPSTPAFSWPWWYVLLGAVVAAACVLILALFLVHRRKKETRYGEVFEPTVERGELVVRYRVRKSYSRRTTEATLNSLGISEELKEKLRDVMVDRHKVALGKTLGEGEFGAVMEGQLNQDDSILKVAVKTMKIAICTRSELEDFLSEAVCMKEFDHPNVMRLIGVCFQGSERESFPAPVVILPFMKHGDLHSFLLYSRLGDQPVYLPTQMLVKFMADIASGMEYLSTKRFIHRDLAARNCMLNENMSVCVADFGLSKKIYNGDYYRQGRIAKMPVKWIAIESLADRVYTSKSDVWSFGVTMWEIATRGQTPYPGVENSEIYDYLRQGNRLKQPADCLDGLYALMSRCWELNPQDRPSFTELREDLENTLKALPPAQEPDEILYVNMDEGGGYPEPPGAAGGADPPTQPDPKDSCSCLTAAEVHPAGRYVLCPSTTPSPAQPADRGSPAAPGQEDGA
The experiment in a line: LanthaScreen Eu kinase binding assay, Axl. The settings on record: Tracer 236. In general terms: In TR-FRET formats the signal depends on donor and acceptor labels being close together.

For assay [2], the target named is T2, Mer (Homo sapiens, UniProt Q12866).
T2 construct: purchased Life Technologies
T2 sequence (Q12866 21-999): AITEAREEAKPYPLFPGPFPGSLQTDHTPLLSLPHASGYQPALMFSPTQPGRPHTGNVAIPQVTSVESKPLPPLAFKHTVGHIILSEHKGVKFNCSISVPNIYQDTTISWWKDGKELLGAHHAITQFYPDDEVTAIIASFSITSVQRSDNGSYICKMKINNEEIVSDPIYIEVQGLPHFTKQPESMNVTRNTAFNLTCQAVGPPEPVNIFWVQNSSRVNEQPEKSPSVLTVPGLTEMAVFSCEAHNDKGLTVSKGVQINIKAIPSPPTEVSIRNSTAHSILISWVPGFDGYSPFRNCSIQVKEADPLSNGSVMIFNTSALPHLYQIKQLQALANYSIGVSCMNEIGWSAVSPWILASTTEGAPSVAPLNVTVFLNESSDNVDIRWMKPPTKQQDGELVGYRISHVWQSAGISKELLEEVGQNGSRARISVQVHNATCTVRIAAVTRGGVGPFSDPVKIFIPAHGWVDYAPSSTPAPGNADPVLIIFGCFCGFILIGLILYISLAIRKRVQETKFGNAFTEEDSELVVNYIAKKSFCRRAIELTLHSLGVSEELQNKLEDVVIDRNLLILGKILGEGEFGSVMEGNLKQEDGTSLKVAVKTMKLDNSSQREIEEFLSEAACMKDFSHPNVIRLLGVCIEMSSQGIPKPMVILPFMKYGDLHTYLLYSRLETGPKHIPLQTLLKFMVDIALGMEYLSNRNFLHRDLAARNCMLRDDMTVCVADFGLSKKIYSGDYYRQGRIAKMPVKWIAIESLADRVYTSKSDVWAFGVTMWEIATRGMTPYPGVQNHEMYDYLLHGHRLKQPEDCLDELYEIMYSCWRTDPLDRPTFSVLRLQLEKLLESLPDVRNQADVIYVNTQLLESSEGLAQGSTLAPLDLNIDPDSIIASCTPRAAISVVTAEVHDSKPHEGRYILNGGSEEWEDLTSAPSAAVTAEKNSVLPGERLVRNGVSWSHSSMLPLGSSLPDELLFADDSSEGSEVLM
The assay can be described thus: LanthaScreen Eu kinase binding assay, Mer. The settings on record: Tracer 236.

Molecules are shown by their SMILES.

A word on the Kd: it is the concentration at which binding is half-saturated. The low end stands for a tighter complex, the high end for a looser complex.

For the compound `CCOc1cn(-c2cncn2C)nc1C(=O)Nc1ccc(Oc2ccnc3cc(OC)c(OC)cc23)cn1` [Compound 11], the Kd in assay [1] and in assay [2] was under 100 nM in each case.

`CCOc1cn(-c2nccnc2Cl)nc1C(=O)Nc1ccc(Oc2ccnc3cc(OC)c(OC)cc23)cc1F` [Compound 190]: the Kd in assay [1] and in assay [2] was under 100 nM in each case.

For `CCOc1cn(-c2c(C)ccnc2C)nc1C(=O)Nc1ccc(Oc2ccnc3cc(OC)c(OC)cc23)c(F)c1` [Compound 188], the Kd in assay [1] and in assay [2] was under 100 nM in each case.

In the case of `CCOc1cn(-c2cscn2)nc1C(=O)Nc1ccc(Oc2ccnc3cc(OC)c(OC)cc23)cn1` [Compound 13], the Kd in assay [1] and in assay [2] was under 100 nM each time.

`CCOc1cn(-c2ccc(Cl)c(C(=O)N(C)C)c2)nc1C(=O)Nc1ccc(Oc2ccnc3cc(OC)c(OC)cc23)cn1` [Compound 129]: the Kd in assay [1] and in assay [2] was under 100 nM each time.

Consider `CCOc1cn(-c2ncn(C)n2)nc1C(=O)Nc1ccc(Oc2ccnc3cc(OC)c(OC)cc23)cn1` [Compound 165], for which the Kd in assay [1] and in assay [2] was under 100 nM throughout.

Regarding `CCOc1cn(-c2ccc(Cl)c(CN(C)C)c2)nc1C(=O)Nc1ccc(Oc2ccnc3cc(OC)c(OC)cc23)cn1` [Compound 126], the Kd in assay [1] and in assay [2] was under 100 nM in each case.

With `CCOc1cn(-c2cncs2)nc1C(=O)Nc1ccc(Oc2ccnc3cc(OC)c(OC)cc23)cn1` [Compound 14], the Kd in assay [1] and in assay [2] was under 100 nM in each case.

With `CCOc1cn(-c2cnccc2Cl)nc1C(=O)Nc1ccc(Oc2ccnc3cc(OC)c(OC)cc23)cc1F` [Compound 194], the Kd in assay [1] and in assay [2] was under 100 nM each time.

Consider `COc1cc2nccc(Oc3ccc(NC(=O)c4nn(-c5ccc(OC(F)(F)F)cc5Cl)cc4OCC(F)(F)F)nc3)c2cc1OC` [Compound 186], for which the Kd in assay [1] was 100 to 1000 nM; in assay [2] it was under 100 nM.

As for `CCOc1cn(-c2ccc(Cl)cc2Cl)nc1C(=O)Nc1ccc(Oc2ccnc3cc(OC)c(OC)cc23)cn1` [Compound 108], the Kd in assay [1] and in assay [2] was under 100 nM in each case.

For the compound `CCOc1cn(-c2ccc(F)cc2C)nc1C(=O)Nc1ccc(Oc2ccnc3cc(OC)c(OC)cc23)nn1` [Compound 97], the Kd in assay [1] and in assay [2] was under 100 nM each time.

Consider `CCOc1cn(-c2ccc(OC(F)(F)F)cc2Cl)nc1C(=O)Nc1ccc(Oc2ccnc3cc(OC)c(OC)cc23)cn1` [Compound 115], for which the Kd in assay [1] and in assay [2] was under 100 nM throughout.

Turning to `CCOc1cn(-c2ccc(Cl)cc2CC)nc1C(=O)Nc1ccc(Oc2ccnc3cc(OC)c(OC)cc23)cn1` [Compound 111], the dissociation constant (Kd) in assay [1] and in assay [2] was under 100 nM in each case.

As for `CCOc1cn(-c2cnccc2C(F)(F)F)nc1C(=O)Nc1ccc(Oc2ccnc3cc(OC)c(OC)cc23)cn1` [Compound 170], the equilibrium dissociation constant (Kd) in assay [1] and in assay [2] was under 100 nM throughout.

`CCOc1cn(-c2nc[nH]n2)nc1C(=O)Nc1ccc(Oc2ccnc3cc(OC)c(OC)cc23)cn1` [Compound 168]: the Kd in assay [1] and in assay [2] was under 100 nM each time.

Turning to `CCOc1cn(-c2cn[nH]c2)nc1C(=O)Nc1ccc(Oc2ccnc3cc(OC)c(OC)cc23)cn1` [Compound 8], the Kd in assay [1] and in assay [2] was under 100 nM throughout.

For `CCOc1cn(-c2cnc(N)nc2)nc1C(=O)Nc1ccc(Oc2ccnc3cc(OC)c(OC)cc23)c(F)c1` [Compound 141], the Kd in assay [1] and in assay [2] was under 100 nM in each case.

On to `CCOc1cn(-c2ccc(F)cc2C(F)(F)F)nc1C(=O)Nc1ccc(Oc2ccnc3cc(OC)c(OC)cc23)cn1` [Compound 104], for which the Kd in assay [1] and in assay [2] was under 100 nM in each case.

For `CCOc1cnn(-c2ccc(C(F)(F)F)cc2C)c1C(=O)Nc1ccc(Oc2ccnc3cc(OC)c(OC)cc23)cn1` [Compound 102], the dissociation constant Kd was under 100 nM in assay [1] and 100 to 1000 nM in assay [2].

With `CCOc1cn(-c2cnccc2C(C)(O)CO)nc1C(=O)Nc1ccc(Oc2ccnc3cc(OC)c(OC)cc23)cn1` (stereo not drawn) [Compound 205], the Kd in assay [1] and in assay [2] was under 100 nM throughout.
